Experimental data from US7160898B2, “Pharmacological treatment for sleep apnea” (Board of Trustees of The University of Illinois, priority 2002, dated 2007).

Experiments:
NREM and REM sleep = test: Sleep/wake staging by EEG/EMG after GR38032F (Example 2); assay type: in vivo, rat (Sprague-Dawley); conditions: 1 mg/kg i.p.
Method: (§1) Physiological parameters (see below) from each animal were recorded on 2 occasions in random order, with recordings for an individual animal separated for at least 3 days. Fifteen minutes prior to each recording each animal received a systemic injection (1 ml/kg intraperitoneal bolus injection) of either saline (control) or 1 mg/kg of ondansetron (GR38032F; 1,2,3,9-tetrahydro-9-methyl-3-[(2-methylimidazol-1-yl)methyl]carbazole-4-one, hydrochloride, dihydrate; Glaxo Wellcome, Inc., Research Triangle Park, N.C.). Polygraphic recordings were made from hours 10:00–16:00.
Respiration was recorded by placing each animal, unrestrained, inside a single chamber plethysmograph (PLYUNIR/U; Buxco Electronics, Sharon, Conn.; dimension 6 in.×10 in.×6 in.) ventilated with a bias flow of fresh room air at a rate of 2 L/min. A cable plugged onto the animal's connector and passed through a sealed port was used to carry the bioelectrical activity from the head implant.
Sleep and waking states were assessed using the biparietal EEG and nuchal EMG signals on 10-second epochs as described by Bennington et al. [Sleep, 17:28–36 (1994)]. […] Sleep efficiency was measured as the percentage of total recorded epochs staged as NREM or REM sleep.

cardiovascular variables = test: Radiotelemetry of blood pressure and heart period after GR38032F (Example 2); assay type: in vivo, rat (Sprague-Dawley); conditions: 1 mg/kg i.p.
From the text: After surgery, all animals were allowed to recover for one week before being subjected to another surgery that involved implantation of a radiotelemetry transmitter (TA11-PXT, Data Sciences International, St. Paul, Minn.) for monitoring blood pressure (BP) and heart period (HP), estimated as pulse interval. After the animals were anesthetized (as described above), the hair from the subxiphoid space to the pelvis was removed. The entire area was scrubbed with iodine and rinsed with alcohol and saline. A 4–6 cm midline abdominal incision was made to allow good visualization of the area from the bifurcation of the aorta to the renal arteries. A retractor was used to expose the contents of the abdomen and the intestine was held back using saline moistened gauze sponges. The aorta was dissected from the surrounding fat and connective tissues using sterile cotton applicators. A 3-0 silk suture was placed beneath the aorta and traction was applied to the suture to restrict the blood flow. Then the implant (TA11-PXT) was held by forceps while the aorta was punctured just cranial to the bifurcation using a 21-gauge needle bent at the beveled end. The tip of the catheter was inserted under the needle using the needle as a guide until the thin-walled BP sensor section was within the vessel. Finally, one drop of tissue adhesive (Vetbond®, 3M, Minneapolis, Minn.) was applied to the puncture site and covered with a small square of cellulose fiber (approximately 5 mm^2) so as to seal the puncture after catheter insertion. The radio implant was attached to the abdominal wall by 3-0 silk suture, and the incision was closed in layers. After the second surgery, animals were again allowed a one week recovery period prior to administration of the serotonin receptor antagonist and subsequent physiological recording.
as §1
Similar software (Experimenters' Workbench; Datawave Technologies, Longmont, Colo.) was employed to analyze the blood pressure waveform; for each beat of each recording, systolic (SBP) and diastolic (DBP) blood pressures and pulse interval were measured. The pulse interval provided a beat by beat estimate of HP. Mean BP (MBP) was estimated according to the weighted average of SBP and DBP for each beat: MBP=DBP+(SBP−DBP)/3. The parameters for each beat were also classified according to the sleep/wake state and recording hour during which they occurred.

Cc1nccn1CC1CCc2c(c3ccccc3n2C)C1=O.Cl.O.O (stereo not drawn) [GR38032F, 1,2,3,9-tetrahydro-9-methyl-3-[(2-methylimidazol-1-yl)methyl]carbazole-4-one, hydrochloride, dihydrate]
percentage of total recording time spent in REM sleep (NREM and REM sleep; 6 hours): did not significantly affect REM sleep | percentage of total recording time spent in NREM sleep (NREM and REM sleep; first 2 hours, p<0.001): significant suppression of NREM sleep | HP, NREM (cardiovascular variables; NREM sleep, mean ± SE): 189 ± 3 ms | Mean BP, NREM (cardiovascular variables; NREM sleep, mean ± SE): 112 ± 17 mm Hg | HP, REM (cardiovascular variables; REM sleep, mean ± SE): 190 ± 3 ms | Mean BP, REM (cardiovascular variables; REM sleep, mean ± SE): 110 ± 17 mm Hg | effect on cardiovascular variables (MBP and HP during W, NREM, REM sleep) (cardiovascular variables; p>0.1 for each variable): no effect on any cardiovascular variable | HP, W (cardiovascular variables; wakefulness, mean ± SE): 183 ± 3 ms | Mean BP, W (cardiovascular variables; wakefulness, mean ± SE): 113 mm Hg
